Key:
Assay type in all cases: biochemical
[1] = molecular target: T1, Human recombinant ALDH3A1 (Homo sapiens, UniProt P30838); experiment: Kinetic parameters and inhibition type from Kobs versus inhibitor concentration plots; conditions: for Ki: printed in the Kinact/Ki column in place of Kinact/Ki
T1 sequence (P30838 1-453): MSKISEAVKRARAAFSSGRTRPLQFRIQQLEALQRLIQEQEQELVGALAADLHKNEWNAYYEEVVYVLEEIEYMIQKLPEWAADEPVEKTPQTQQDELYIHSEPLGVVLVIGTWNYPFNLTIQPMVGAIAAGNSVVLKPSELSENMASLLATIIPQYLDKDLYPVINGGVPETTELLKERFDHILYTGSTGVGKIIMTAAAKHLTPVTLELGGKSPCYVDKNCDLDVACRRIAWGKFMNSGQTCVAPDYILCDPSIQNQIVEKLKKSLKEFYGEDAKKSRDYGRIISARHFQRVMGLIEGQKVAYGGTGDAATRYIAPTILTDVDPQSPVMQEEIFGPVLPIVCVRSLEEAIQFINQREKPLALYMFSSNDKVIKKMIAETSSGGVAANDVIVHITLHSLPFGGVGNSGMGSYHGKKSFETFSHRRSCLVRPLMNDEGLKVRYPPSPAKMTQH
Protocol: (§1) The kinetic data are expressed as the mean±standard error from three independent determination. Kinact/Ki was determined from Kobs versus concentration of the inhibitor [I] plots. […] The Kobs were obtained from negative exponential fit using non-linear regression program GraFit 5.0 (Erithacus software).
(§2) To determine the inhibition mechanisms of the tested compounds for each isoenzyme, the corresponding Kobs were calculated as mentioned above, plotting product concentration vs time incubation of the enzymes with the test compounds at 300 μM, 200 μM, 100 μM, 50 μM, 20 μM and 10 μM. The kobs were obtained for each concentration of inhibitor tested, from the negative exponential fit using non-linear regression program GraFit 5.0 (Erithacus software). Finally, the kinetic parameter of kinact/KI was determined from the plot of kobs versus the corresponding concentration of inhibitor. The slope of the linear fit of data indicated the rate constant in μM^−1·min^−1.

[2] = molecular target: T2, Human recombinant ALDH1A2 (Homo sapiens, UniProt O94788); experiment: as above; conditions: from Kobs versus [I] plots
T2 construct: purchased Creative BioMart, NY, USA
T2 sequence (O94788 1-518): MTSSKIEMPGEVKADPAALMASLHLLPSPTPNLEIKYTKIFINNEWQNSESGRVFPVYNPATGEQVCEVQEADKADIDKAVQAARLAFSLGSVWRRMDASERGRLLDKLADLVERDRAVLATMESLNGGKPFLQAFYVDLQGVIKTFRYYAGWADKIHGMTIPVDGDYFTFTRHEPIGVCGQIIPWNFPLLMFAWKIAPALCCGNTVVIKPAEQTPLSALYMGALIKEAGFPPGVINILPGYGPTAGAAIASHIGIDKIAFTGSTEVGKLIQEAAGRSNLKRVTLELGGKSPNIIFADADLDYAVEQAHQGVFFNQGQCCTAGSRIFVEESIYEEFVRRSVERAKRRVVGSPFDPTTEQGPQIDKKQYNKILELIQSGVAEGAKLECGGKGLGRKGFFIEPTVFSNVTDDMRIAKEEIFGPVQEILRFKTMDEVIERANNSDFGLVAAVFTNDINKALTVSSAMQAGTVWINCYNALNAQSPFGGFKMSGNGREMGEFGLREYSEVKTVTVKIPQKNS
Protocol: as §1, §2

[3] = molecular target: T3, Human recombinant ALDH1A3 (Homo sapiens, UniProt P47895); experiment: as above; conditions: for kinact/KI: from Kobs versus [I] plots; for Specificity of interaction with ALDH1A3: compared with DIMATE
T3 construct: purchased Creative BioMart, NY, USA
T3 sequence (P47895 1-512): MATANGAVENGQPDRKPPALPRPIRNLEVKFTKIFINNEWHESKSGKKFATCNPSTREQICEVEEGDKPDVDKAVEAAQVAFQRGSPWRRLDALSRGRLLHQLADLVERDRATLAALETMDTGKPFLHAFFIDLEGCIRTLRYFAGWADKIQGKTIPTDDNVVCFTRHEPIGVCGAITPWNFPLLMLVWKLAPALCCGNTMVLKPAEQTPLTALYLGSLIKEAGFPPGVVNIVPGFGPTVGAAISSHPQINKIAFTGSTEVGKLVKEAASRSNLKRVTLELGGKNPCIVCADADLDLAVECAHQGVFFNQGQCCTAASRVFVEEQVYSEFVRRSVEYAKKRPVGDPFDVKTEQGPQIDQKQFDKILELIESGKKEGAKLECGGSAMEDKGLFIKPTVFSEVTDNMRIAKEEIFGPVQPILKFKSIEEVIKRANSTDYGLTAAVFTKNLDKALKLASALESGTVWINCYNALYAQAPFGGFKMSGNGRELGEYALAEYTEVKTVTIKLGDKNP
Protocol: as §1, §2

[4] = molecular target: T1, Human recombinant ALDH3A1; experiment: Enzymatic assay with human recombinant ALDH3A1 (NADP+, 4-NBA), IC50; conditions: substrate 4-Nitrobenzaldehyde, 37° C.
Protocol: For ALDH3A1 (1 mg/mL), 10 μL of enzyme was added into a reaction buffer containing 50 mM Tris, 5 mM DTT, pH 8, plus 40 mM Nicotinamide adenine dinucleotide phosphate (oxidized form, NADP^+) and 4-Nitrobenzaldehyde (4-NBA) (Sigma-.Aldrich). Internal standards were prepared with Nicotinamide adenine dinucleotide phosphate reduced form (NADPH, 5 μM, Sigma-Aldrich) in Reaction Buffer (50 mM Tris, 5 mM DTT, pH 8).
Time-dependent inhibition assays were performed for 0-2-5-10-15-20-30-45-60 min at 37° C. in 1 mL-quartz cuvette. The formation of NADH was monitored, reading samples at excitation wavelength=340 nm/emission wavelength=460 nm (fluorescence) for at least 600 sec using Cary Eclipse Varian fluorimeter.
Negative control consisted in the same reactions except that enzyme was not added (enzyme blank). To determine the slope for enzyme blank and calculate product concentration (Unit of fluorescence) the following formulae was used: […]
where Cst is the standard NADH concentration, Fst is the standard fluorescence and dF/dt is the slope of the time dependent fluorescence (S. Sotobodowska et al, 2012). The specific activity of the enzymes (μmol/min·mg-U/mg) in the absence of presence of inhibitors was calculated as follows: […]

Compound	Ki [1] [µM]	kinact/KI [2] [M⁻¹ s⁻¹]	ALDH1A3 Inhibition Type [3]	kinact/KI [3] [M⁻¹ s⁻¹]	IC50 [4] [µM]	Specificity of interaction with ALDH1A3 [3]	kinact/KI ([1]; from Kobs versus [I] plots) [M⁻¹ s⁻¹]
CSC(=O)C#CC(C)(C)N(C)C [DIMATE, S-methyl 4-(dimethylamino)-4-methylpent-2-ynethioate, reference compound]	253	85	non-specific affinity label	28.3	303 ± 46		
CSC(=O)C#CC(C)(C)N(C)CCOCc1ccccc1 [Example 3, S-methyl 4-[2-benzyloxyethyl(methyl)amino]-4-methyl-pent-2-ynethioate]	233	1670	specific	642	242 ± 11	higher specificity	
CSC(=O)C#CC(C)(C)N(C)CCOCc1ccc(C)c(C)c1 [Example 5, S-methyl 4-[2-[(3,4-dimethylphenyl)methoxy]ethyl-methyl-amino]-4-methyl-pent-2-ynethioate]		352	specific	197	143 ± 2	higher specificity	5

Source: US20220265845A1, “AMINOTHIOLESTER COMPOUNDS AND USES THEREOF” (ADVANCED BIODESIGN, priority 2019, published 2022)
